Reference: ChEMBL document CHEMBL1201862, “PubChem BioAssay data set” (2004)
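Exposure lasted 48 hours, with cells grown in 96-well plates and compounds tested at five concentrations. The concentration for 50% growth inhibition is given as GI50.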 The source made the active and inactive calls. No stated cut-off is given here; in the data, active = GI50 up to about 1.1 µM and inactive = higher.

What was measured:
Experiment in all cases: NCI-60 cell line screen, 48 h
[1] = system: UO-31
[2] = system: A549
[3] = system: OVCAR-4
[4] = system: MCF7
[5] = system: HCT-116
[6] = system: HCT-15
[7] = system: SK-MEL-28
[8] = system: HL-60
[9] = system: ACHN
[10] = system: SNB-19
[11] = system: BT-549
[12] = system: K562
[13] = system: EKVX
[14] = system: SF-295
[15] = system: U-251
[16] = system: KM12
[17] = system: Malme-3M
[18] = system: CAKI-1
[19] = system: SF-268
[20] = system: Hs-578T

| Structure (SMILES) | GI50 [1] | GI50 [2] | GI50 [3] | GI50 [4] | GI50 [5] | GI50 [6] [µM] | GI50 [7] | GI50 [8] | GI50 [9] | GI50 [10] | GI50 [11] | GI50 [12] | GI50 [13] | GI50 [14] | GI50 [15] | GI50 [16] | GI50 [17] | GI50 [18] | GI50 [19] | GI50 [20] |
| --- | --- | --- | --- | --- | --- | --- | --- | --- | --- | --- | --- | --- | --- | --- | --- | --- | --- | --- | --- | --- |
| CN1C(=O)C(O)CC1c1ccccc1F (configuration not stated) | > 100 µM (inactive) | > 100 µM (inactive) | > 100 µM (inactive) | > 100 µM (inactive) | > 100 µM (inactive) | > 100 | > 100 µM (inactive) | > 100 µM (inactive) | > 100 µM (inactive) | > 100 µM (inactive) | > 100 µM (inactive) | > 100 µM (inactive) | > 100 µM (inactive) | > 100 µM (inactive) | > 100 µM (inactive) | > 100 µM (inactive) | > 100 µM (inactive) | > 100 µM (inactive) |  |  |
| COC(=O)c1cccc2c1Oc1ccccc1S2 | 31.8 µM (inactive) | 75.2 µM (inactive) | 66.4 µM (inactive) | 37.2 µM (inactive) | 47.1 µM (inactive) | 46.1 | 96.8 µM (inactive) | 8.18 µM (inactive) | 61.2 µM (inactive) | 41.2 µM (inactive) | 60.3 µM (inactive) | 57.9 µM (inactive) | 39.4 µM (inactive) | 60.8 µM (inactive) | 59.6 µM (inactive) | 12 µM (inactive) |  | 14.5 µM (inactive) | 38.8 µM (inactive) | 40.6 µM (inactive) |
| S=c1[nH]nc(Cn2c3ccc(Br)cc3c3nc4ccccc4nc32)n1C1CCCCC1 | 18.2 µM (inactive) | 21.2 µM (inactive) | 13.7 µM (inactive) | 16.7 µM (inactive) | 12.1 µM (inactive) | 22 | 9.44 µM (inactive) |  | 29.4 µM (inactive) | 43.5 µM (inactive) | 52.2 µM (inactive) | 25.9 µM (inactive) | 35 µM (inactive) | 16.7 µM (inactive) | 18.5 µM (inactive) | 32.7 µM (inactive) | 29.7 µM (inactive) | 34.2 µM (inactive) | 51.6 µM (inactive) |  |
| CC(C)(C)C(=O)C(C(c1ccccc1)N1CCOCC1)N1CCOCC1 (configuration not stated) | > 100 µM (inactive) | > 100 µM (inactive) | > 100 µM (inactive) |  | > 100 µM (inactive) | > 100 | > 100 µM (inactive) |  | > 100 µM (inactive) | > 100 µM (inactive) | > 100 µM (inactive) | > 100 µM (inactive) | > 100 µM (inactive) | > 100 µM (inactive) | > 100 µM (inactive) | > 100 µM (inactive) | > 100 µM (inactive) | > 100 µM (inactive) | > 100 µM (inactive) | > 100 µM (inactive) |
| COc1ccc(-c2nc(-c3cnccn3)n(COCCO)n2)cc1 | > 100 µM (inactive) | > 100 µM (inactive) | > 100 µM (inactive) | > 100 µM (inactive) | > 100 µM (inactive) | > 100 | > 100 µM (inactive) | > 100 µM (inactive) |  | > 100 µM (inactive) | > 100 µM (inactive) | > 100 µM (inactive) |  | > 100 µM (inactive) | > 100 µM (inactive) | > 100 µM (inactive) |  |  | > 100 µM (inactive) |  |
| COc1ccc(C2C3=C(N=C4SC(C(C)=O)=C(C)N42)c2ccccc2CC3)cc1 (configuration not stated) | 91.6 µM (inactive) | 83 µM (inactive) | > 100 µM (inactive) | 92.7 µM (inactive) | 15 µM (inactive) | > 100 | > 100 µM (inactive) | 10.1 µM (inactive) | > 100 µM (inactive) | > 100 µM (inactive) | 81.8 µM (inactive) |  |  | > 100 µM (inactive) | 57.9 µM (inactive) | 38.6 µM (inactive) |  |  | > 100 µM (inactive) | 69 µM (inactive) |
| NC(=O)/C=C/c1c[nH]c2nccnc12 | 0.735 µM (active) | 4.41 µM (inactive) | 4.09 µM (inactive) | 3.27 µM (inactive) | 1.59 µM (inactive) | 3.27 | 0.628 µM (active) | 2.26 µM (inactive) | 2.71 µM (inactive) | 0.973 µM (active) | 2.2 µM (inactive) | 0.966 µM (active) | 3.15 µM (inactive) | 3.26 µM (inactive) | 4.85 µM (inactive) | 2.93 µM (inactive) | 0.726 µM (active) | 3.08 µM (inactive) | 2.05 µM (inactive) |  |
| CC1(C)OC2C(O)CN3CCS[C@H]3C2O1 (some centres not stated) | > 100 µM (inactive) | > 100 µM (inactive) | > 100 µM (inactive) |  | > 100 µM (inactive) | > 100 | > 100 µM (inactive) | > 100 µM (inactive) | > 100 µM (inactive) | > 100 µM (inactive) | > 100 µM (inactive) | > 100 µM (inactive) | > 100 µM (inactive) | > 100 µM (inactive) | > 100 µM (inactive) | > 100 µM (inactive) | > 100 µM (inactive) | > 100 µM (inactive) | > 100 µM (inactive) | > 100 µM (inactive) |
